pIC50: −log10 of the molar value.
Experiments:
[1] = biological target: T1, human sodium channels Nav 1.8 (Homo sapiens, UniProt Q9Y5Y9); experiment: Automated whole-cell voltage-clamp (ScreenPatch 384P) sodium current block, Nav 1.8; format: cell-based; details: CHO cells stably expressing human Nav 1.8; inactivation step -40 mV for 8 seconds, test step 10 mV (TP1A); exposure at least five minutes; room temperature; mean if two or more assays; read-out: Nav1.8 IC50
T1 construct: expressed in transfected cells
T1 sequence (Q9Y5Y9 whole entry): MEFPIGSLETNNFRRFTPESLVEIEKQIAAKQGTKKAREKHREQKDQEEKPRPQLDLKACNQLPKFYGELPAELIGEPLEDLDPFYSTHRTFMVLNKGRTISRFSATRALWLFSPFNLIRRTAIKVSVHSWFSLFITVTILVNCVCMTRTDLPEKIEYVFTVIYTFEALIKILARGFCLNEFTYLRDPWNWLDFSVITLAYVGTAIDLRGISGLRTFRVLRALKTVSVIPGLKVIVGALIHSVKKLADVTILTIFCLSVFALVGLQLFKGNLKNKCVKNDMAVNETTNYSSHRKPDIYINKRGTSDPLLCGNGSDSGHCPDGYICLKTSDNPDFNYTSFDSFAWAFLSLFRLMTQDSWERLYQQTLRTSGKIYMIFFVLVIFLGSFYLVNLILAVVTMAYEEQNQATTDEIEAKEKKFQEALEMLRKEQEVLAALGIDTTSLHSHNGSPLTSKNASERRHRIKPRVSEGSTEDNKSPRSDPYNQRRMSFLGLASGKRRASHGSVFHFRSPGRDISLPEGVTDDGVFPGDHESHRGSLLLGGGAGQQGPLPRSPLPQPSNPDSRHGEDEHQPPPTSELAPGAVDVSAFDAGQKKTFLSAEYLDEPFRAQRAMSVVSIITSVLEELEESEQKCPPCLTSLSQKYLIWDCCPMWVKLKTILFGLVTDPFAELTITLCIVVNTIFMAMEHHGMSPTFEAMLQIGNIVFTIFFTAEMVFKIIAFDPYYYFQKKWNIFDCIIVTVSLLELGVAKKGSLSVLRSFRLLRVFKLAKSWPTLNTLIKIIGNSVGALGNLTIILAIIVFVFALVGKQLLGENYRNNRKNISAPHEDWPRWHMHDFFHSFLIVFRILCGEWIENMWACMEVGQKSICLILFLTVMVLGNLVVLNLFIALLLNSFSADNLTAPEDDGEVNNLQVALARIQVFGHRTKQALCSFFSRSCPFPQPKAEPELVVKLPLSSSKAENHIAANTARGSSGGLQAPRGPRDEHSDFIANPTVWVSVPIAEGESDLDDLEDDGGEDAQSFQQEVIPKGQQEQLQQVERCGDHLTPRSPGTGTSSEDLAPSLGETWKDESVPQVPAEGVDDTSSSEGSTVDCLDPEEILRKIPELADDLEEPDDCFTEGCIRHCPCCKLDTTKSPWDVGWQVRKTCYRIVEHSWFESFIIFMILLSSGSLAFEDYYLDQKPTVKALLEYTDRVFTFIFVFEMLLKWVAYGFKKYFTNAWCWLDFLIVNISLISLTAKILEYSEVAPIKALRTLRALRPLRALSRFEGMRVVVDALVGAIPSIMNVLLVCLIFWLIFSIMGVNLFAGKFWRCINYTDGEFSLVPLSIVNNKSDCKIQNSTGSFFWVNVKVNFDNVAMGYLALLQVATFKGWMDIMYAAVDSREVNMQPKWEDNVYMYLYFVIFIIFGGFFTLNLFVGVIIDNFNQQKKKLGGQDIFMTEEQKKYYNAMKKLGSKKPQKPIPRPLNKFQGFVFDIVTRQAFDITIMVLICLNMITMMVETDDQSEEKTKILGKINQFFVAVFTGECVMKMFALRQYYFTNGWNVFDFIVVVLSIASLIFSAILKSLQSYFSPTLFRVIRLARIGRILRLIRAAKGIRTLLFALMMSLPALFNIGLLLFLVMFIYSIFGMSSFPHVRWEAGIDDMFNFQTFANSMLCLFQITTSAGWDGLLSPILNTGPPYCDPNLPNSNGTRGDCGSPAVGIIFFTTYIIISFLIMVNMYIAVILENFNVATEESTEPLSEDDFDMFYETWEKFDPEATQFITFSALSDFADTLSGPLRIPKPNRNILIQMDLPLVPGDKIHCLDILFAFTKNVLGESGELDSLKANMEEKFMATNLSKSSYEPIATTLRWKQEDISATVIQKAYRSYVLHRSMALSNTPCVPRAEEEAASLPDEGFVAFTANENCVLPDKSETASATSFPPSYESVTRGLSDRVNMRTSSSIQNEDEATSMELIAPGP
Outline: (§1)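 CHO cells stably expressing human Nav1.7 or Nav1.8 were recorded by automated whole-cell clamp with ≥5 min compound exposure, eight concentrations, at room temperature, pH 7.4 external. From -100 mV, cells were held at -40 mV for 8 s, then -100 mV for 20 ms, then a test pulse at 10 mV (Nav1.8) or 0 mV (Nav1.7), at 0.05 Hz. Peak current % block was fitted to give IC50, averaged across assays.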

[2] = biological target: T2, human sodium channels Nav 1.7 (Homo sapiens, UniProt Q15858); experiment: Automated whole-cell voltage-clamp (ScreenPatch 384P) sodium current block, Nav 1.7; format: cell-based; details: CHO cells stably expressing human Nav 1.7; inactivation step -40 mV for 8 seconds, test step 0 mV (TP1A); exposure at least five minutes; room temperature; mean if two or more assays; read-out: Nav1.7 IC50
T2 construct: expressed in transfected cells
T2 sequence (Q15858 whole entry): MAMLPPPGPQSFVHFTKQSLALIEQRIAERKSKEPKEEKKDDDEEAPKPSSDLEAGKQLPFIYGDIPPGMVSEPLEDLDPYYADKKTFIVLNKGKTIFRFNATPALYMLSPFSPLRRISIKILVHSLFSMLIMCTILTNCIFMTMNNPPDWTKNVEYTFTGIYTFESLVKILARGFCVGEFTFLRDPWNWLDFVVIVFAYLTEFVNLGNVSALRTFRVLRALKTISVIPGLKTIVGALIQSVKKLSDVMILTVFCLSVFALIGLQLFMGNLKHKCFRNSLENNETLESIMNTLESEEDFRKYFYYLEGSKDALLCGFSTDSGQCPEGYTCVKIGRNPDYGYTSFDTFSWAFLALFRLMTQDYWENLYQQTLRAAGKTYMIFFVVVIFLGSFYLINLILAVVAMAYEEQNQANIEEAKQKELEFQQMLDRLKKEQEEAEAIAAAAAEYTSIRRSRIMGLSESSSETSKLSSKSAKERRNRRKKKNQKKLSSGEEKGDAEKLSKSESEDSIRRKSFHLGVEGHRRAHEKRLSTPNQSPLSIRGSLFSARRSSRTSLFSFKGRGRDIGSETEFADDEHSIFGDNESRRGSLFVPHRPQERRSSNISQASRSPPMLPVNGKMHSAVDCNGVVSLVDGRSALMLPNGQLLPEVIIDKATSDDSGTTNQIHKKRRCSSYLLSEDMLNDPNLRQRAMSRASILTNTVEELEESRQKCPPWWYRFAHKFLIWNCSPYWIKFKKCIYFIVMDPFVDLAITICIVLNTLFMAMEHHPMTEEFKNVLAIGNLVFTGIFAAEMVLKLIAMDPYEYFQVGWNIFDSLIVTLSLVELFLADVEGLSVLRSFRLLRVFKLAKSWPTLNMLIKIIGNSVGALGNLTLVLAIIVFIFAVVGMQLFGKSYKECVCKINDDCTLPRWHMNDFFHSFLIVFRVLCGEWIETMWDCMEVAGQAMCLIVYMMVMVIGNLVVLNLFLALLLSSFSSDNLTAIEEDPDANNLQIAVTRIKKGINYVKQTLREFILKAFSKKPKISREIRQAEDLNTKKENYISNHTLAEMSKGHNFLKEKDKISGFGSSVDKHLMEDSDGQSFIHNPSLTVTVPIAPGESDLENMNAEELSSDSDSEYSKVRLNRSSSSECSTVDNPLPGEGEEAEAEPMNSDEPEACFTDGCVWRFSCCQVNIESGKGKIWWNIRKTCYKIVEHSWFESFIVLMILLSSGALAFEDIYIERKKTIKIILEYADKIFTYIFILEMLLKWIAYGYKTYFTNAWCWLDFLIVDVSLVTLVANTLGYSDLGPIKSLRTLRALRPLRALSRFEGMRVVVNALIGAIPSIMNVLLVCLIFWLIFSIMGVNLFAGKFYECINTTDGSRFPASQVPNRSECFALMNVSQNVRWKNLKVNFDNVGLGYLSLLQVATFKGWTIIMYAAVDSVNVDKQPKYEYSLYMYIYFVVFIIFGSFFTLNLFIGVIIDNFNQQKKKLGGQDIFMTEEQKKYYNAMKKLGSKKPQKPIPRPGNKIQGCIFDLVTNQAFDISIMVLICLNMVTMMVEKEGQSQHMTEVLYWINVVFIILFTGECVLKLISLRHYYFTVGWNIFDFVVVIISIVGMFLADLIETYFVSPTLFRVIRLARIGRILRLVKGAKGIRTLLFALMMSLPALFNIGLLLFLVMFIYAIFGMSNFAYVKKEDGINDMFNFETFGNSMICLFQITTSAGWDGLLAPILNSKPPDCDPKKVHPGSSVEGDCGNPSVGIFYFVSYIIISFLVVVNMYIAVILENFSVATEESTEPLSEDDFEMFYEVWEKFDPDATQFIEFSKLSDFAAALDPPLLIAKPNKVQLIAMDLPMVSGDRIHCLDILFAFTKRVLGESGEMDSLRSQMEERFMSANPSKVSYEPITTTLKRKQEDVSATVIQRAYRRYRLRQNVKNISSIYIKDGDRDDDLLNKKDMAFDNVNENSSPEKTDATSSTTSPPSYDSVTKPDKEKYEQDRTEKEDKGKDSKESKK
Outline: as §1

| Structure (SMILES) | pIC50 [1] | pIC50 [2] |
| --- | --- | --- |
| CCOc1ccc(-c2cncc(C(=O)NOCc3cncn3C(C)C)n2)cn1 [Compound 63] | < 6.00 | < 6.00 |
| CCOc1ccc(-c2cncc(C(=O)NOCc3ccnn3C(C)C)n2)cn1 [Compound 64] | < 6.00 | < 6.00 |
| CCOc1ccc(-c2cncc(C(=O)NOCc3ocnc3C)n2)cn1 [Compound 65, 6-(6-ethoxypyridine-3-yl)-N-((4-methyloxazole-5-yl)methoxy)pyrazine-2-carboxamide] | < 6.00 | < 6.00 |
| CCOc1ccc(-c2cncc(C(=O)NOCc3occc3OC)n2)cn1 [Compound 66, 6-(6-ethoxypyridine-3-yl)-N-((3-methoxyfuran-2-yl)methoxy)pyrazine-2-carboxamide] | < 6.00 | < 6.00 |
| CCOc1ccc(-c2cncc(C(=O)NOCc3[nH]ccc3C)n2)cn1 [Compound 67, 6-(6-ethoxypyridine-3-yl)-N-((3-methyl-1H-pyrrole-2-yl)methoxy)pyrazine-2-carboxamide] | > 6.30 | < 6.00 |
| CCOc1ccc(-c2cncc(C(=O)NOCc3[nH]ccc3C#N)n2)cn1 [Compound 68] | < 6.00 | < 6.00 |
| CCOc1ccc(-c2cncc(C(=O)NOCc3c[nH]nc3C)n2)cn1 [Compound 69, 6-(6-ethoxypyridine-3-yl)-N-((3-methyl-1H-pyrazole-4-yl)methoxy)pyrazine-2-carboxamide] | < 6.00 | < 6.00 |
| CCOc1ccc(-c2cncc(C(=O)NOCc3cn(C(C)C)cn3)n2)cn1 [Compound 70] | > 6.30 | 6.00 to 6.30 |
| O=C(NOCc1ccccc1F)c1cncc(-c2ccc(OC(F)(F)F)nc2)n1 [Compound 71] | > 6.30 | > 6.30 |
| COc1cccc(CONC(=O)c2cncc(-c3ccc(OC(F)(F)F)nc3)n2)c1 [Compound 72] | > 6.30 | > 6.30 |
| O=C(NOCc1ccccn1)c1cncc(-c2ccc(OC(F)(F)F)nc2)n1 [Compound 73] | > 6.30 | < 6.00 |
| O=C(NOCc1cccnc1)c1cncc(-c2ccc(OC(F)(F)F)nc2)n1 [Compound 74] | > 6.30 | < 6.00 |
| O=C(NOCc1ccncc1)c1cncc(-c2ccc(OC(F)(F)F)nc2)n1 [Compound 75] | > 6.30 | > 6.30 |
| COc1ccc(F)c(CONC(=O)c2cncc(-c3ccc(OC(F)(F)F)nc3)n2)c1 [Compound 76] | > 6.30 | 6.00 to 6.30 |
| COc1ccc(F)c(CONC(=O)c2cncc(-c3ccc(OC(F)F)nc3)n2)c1 [Compound 77] | < 6.00 | < 6.00 |
| COc1cnc(F)c(CONC(=O)c2cncc(-c3ccc(OC(F)F)nc3)n2)c1 [Compound 78] | < 6.00 | < 6.00 |
| COc1cc(CONC(=O)c2cncc(-c3ccc(OC(F)F)nc3)n2)c(F)cn1 [Compound 79, 6-(6-(difluoromethoxy)pyridine-3-yl)-N-((5-fluoro-2-methoxypyridine-4-yl)methoxy)pyrazine-2-carboxamide] | < 6.00 | < 6.00 |
| CN(C)c1cnc(F)c(CONC(=O)c2cncc(-c3ccc(OC(F)F)nc3)n2)c1 [Compound 80] | 6.00 to 6.30 | < 6.00 |
| CN(C)c1ccc(F)c(CONC(=O)c2cncc(-c3ccc(OC(F)F)nc3)n2)c1 [Compound 81] | < 6.00 | < 6.00 |
| COc1cncc(CONC(=O)c2cncc(-c3ccc(OC(F)F)nc3)n2)c1 [Compound 82] | < 6.00 | < 6.00 |
| [2H]C([2H])([2H])Oc1ccc(F)c(CONC(=O)c2cncc(-c3ccc(OC(F)F)nc3)n2)c1 [Compound 83] | < 6.00 | < 6.00 |
| COc1ccc(F)c(CONC(=O)c2cncc(-c3ccc([S+](C)[O-])nc3)n2)c1 (stereo not drawn) [Compound 84] | > 6.30 | < 6.00 |
| CCOc1ccc(-c2cncc(C(=O)NOCc3cc(OC)ccc3F)n2)c(O)c1 [Compound 85] | < 6.00 | < 6.00 |
| CCOc1ccc(-c2cncc(C(=O)NOCc3cc(OC)ccc3F)n2)c(C)c1 [Compound 86] | > 6.30 | < 6.00 |
| CCOc1ccc(-c2cncc(C(=O)NOCc3cc(OC)ccc3F)n2)c(OC)c1 [Compound 87] | > 6.30 | < 6.00 |
| COc1ccc(F)c(CONC(=O)c2cncc(-c3ccc(OC(F)F)cc3OC)n2)c1 [Compound 88] | < 6.00 | < 6.00 |
| CCOc1ccc(-c2cncc(C(=O)NOCc3cc(OC)ccc3F)n2)cc1O [Compound 89] | > 6.30 | < 6.00 |

| Structure (SMILES) | pIC50 [1] | pIC50 [2] |
| --- | --- | --- |
| CCOc1ccc(-c2cncc(C(=O)NOCc3cc(OC)ccc3F)n2)c(C)n1 [Compound 92] | > 6.30 | < 6.00 |
| CCOc1cc(C)c(-c2cncc(C(=O)NOCc3cc(OC)ccc3F)n2)cn1 [Compound 93] | < 6.00 | < 6.00 |
| CCOc1ccc(-c2cncc(C(=O)NOCc3cc(OC)ccc3F)n2)c(OC)n1 [Compound 94] | < 6.00 | < 6.00 |
| CCOc1ccc(-c2nc(C(=O)NOCc3cc(OC)cc(OC)c3)cnc2O)cc1 [Compound 96] | > 6.30 | > 6.30 |
| CCOc1ccc(-c2nc(C(=O)NOCc3cc(OC)ccc3F)cnc2O)cn1 [Compound 100] | > 6.30 | < 6.00 |
| CCOc1ccc(-c2cnc(O)c(C(=O)NOCc3cc(OC)ccc3F)n2)cn1 [Compound 101] | < 6.00 | < 6.00 |
| CCOc1ccc(-c2nc(C(=O)NOCc3cc(OC)ccc3F)cnc2N)cn1 [Compound 102] | > 6.30 | < 6.00 |
| CCOc1ccc(-c2cnc(N)c(C(=O)NOCc3cc(OC)ccc3F)n2)cn1 [Compound 103] | 6.00 to 6.30 | < 6.00 |
| CCOc1ccc(-c2nc(C(=O)NOCc3cc(OC)ccc3F)cnc2F)cn1 [Compound 104] | > 6.30 | < 6.00 |
| CCOc1ccc(-c2cnc(F)c(C(=O)NOCc3cc(OC)ccc3F)n2)cn1 [Compound 105] | 6.00 to 6.30 | < 6.00 |
| CCOc1ccc(-c2cccc(C(=O)NOCc3cc(OC)ccc3F)n2)cn1 [Compound 106] | < 6.00 | < 6.00 |
| CCOc1ccc(-c2cccc(C(=O)NOCc3cc(OC)cnc3F)n2)cn1 [Compound 107] | < 6.00 | < 6.00 |
| CCOc1ccc(-c2cncc(C(=O)NOCc3cc(OC)ccc3F)c2)cn1 [Compound 108] | < 6.00 | < 6.00 |
| CCOc1ccc(-c2nccc(C(=O)NOCc3cc(OC)ccc3F)n2)cn1 [Compound 109] | > 6.30 | < 6.00 |
| CCOc1ccc(-c2nccc(C(=O)NOCc3cc(OC)cnc3F)n2)cn1 [Compound 110] | > 6.30 | 6.00 to 6.30 |
| CCOc1ccc(-c2nc(O)cc(C(=O)NOCc3cc(OC)ccc3F)n2)cc1 [Compound 112] | > 6.30 | < 6.00 |
| CCOc1ccc(-c2cc(O)nc(C(=O)NOCc3cc(OC)ccc3F)n2)cc1 [Compound 113] | > 6.30 | < 6.00 |
| COc1cnc(F)c(CONC(=O)c2cccc(-c3ccc(OC(F)F)nc3)n2)c1 [Compound 114] | 6.00 to 6.30 | < 6.00 |
| COc1ccc(F)c(CONC(=O)c2cccc(-c3ccc(OC(F)F)nc3)n2)c1 [Compound 115] | < 6.00 | < 6.00 |
| COc1ccc(F)c(CONC(=O)c2cncc(-c3ccc(OC(F)F)nc3)c2)c1 [Compound 116] | > 6.30 | < 6.00 |
| COc1cnc(F)c(CONC(=O)c2ccnc(-c3ccc(OC(F)F)nc3)n2)c1 [Compound 117] | < 6.00 | < 6.00 |
| COc1ccc(F)c(CONC(=O)c2ccnc(-c3ccc(OC(F)F)nc3)n2)c1 [Compound 118] | > 6.30 | < 6.00 |
| COc1ccc(F)c(CONC(=O)c2nccc(-c3ccc(OC(F)F)nc3)n2)c1 [Compound 119] | > 6.30 | < 6.00 |
| COc1cnc(F)c(CONC(=O)c2nc(-c3ccc(OC(F)F)nc3)cnc2N)c1 [Compound 120] | < 6.00 | < 6.00 |
| COc1ccc(F)c(CONC(=O)c2cnc(N)c(-c3ccc(OC(F)F)nc3)n2)c1 [Compound 122] | < 6.00 | < 6.00 |
| COc1ccc(F)c(CONC(=O)c2nc(-c3ccc(OC(F)F)nc3)cnc2F)c1 [Compound 123] | < 6.00 | < 6.00 |
| COc1ccc(F)c(CONC(=O)c2cnc(F)c(-c3ccc(OC(F)F)nc3)n2)c1 [Compound 124] | < 6.00 | < 6.00 |

— patent publication EP4660184A1 (Eurofarma Laboratórios S.A., priority 2023, dated 2024)
